Assay results as given in patent publication US9206198B2, “Inhibitors of the renal outer medullary potassium channel” (Merck Sharp & Dohme Corp., priority 2012, dated 2015).

Experiments:
hROMK (hKir1.1) = hROMK (hKir1.1) (Homo sapiens (Human), UniProt P48048); assay: Thallium Flux Assay (ROMK channel functional thallium flux assay, FLIPR-Tetra); format: cell-based; settings: HEK293 cells stably expressing hROMK
Experimental: Cell Culture Conditions— HEK293 cells stably expressing hROMK (hKir1.1) were grown at 37° C. in a 10% CO2 humidified incubator in complete growth media: Dulbecco's Modified Eagle Medium supplemented with non-essential amino acids, Penicillin/Streptomycin/Glutamine, G418 and FBS. At >80% confluency, aspirate the media from the flask and rinse with 10 mL Calcium/Magnesium-free PBS. Add 5 mL of 1× trypsin (prepared in Ca/Mg Free PBS) to T-225 flask and return flask to 37° C./CO2 incubator for 2-3 minutes. To dislodge the cell, gently bang the side of the flask with your hand. Triturate the cells completely and then transfer the cells to 25 mL complete media. Centrifuge at 1,500 rpm for 6 min followed by resuspension in complete growth media and determine cell concentration. For typical re-seeding, 4E6 cells/T-225 flask will attain >80% confluency in 4 days. Under ideal growth conditions and appropriate tissue culture practices, this cell line is stable for 40-45 passages.
FluxOR Kit Components (Invitrogen F10017)
• FluxOR™ Reagent (Component A) • FluxOR™ Assay Buffer (Component B)—10× Concentrate • PowerLoad™ Concentrate (Component C)—100× Concentrate • Probenecid (Component D)—Lyophilized sample is kept at −20° C. Water soluble, 100×after solubilization in 1 mL water. Store at 4° C. • FluxOR™ Chloride-free Buffer (Component E)—5× Concentrate • Potassium sulfate (K2SO4) Concentrate (Component F)—125 mM in water. Store at 4° C. • Thallium sulfate (Tl2SO4) Concentrate (Component G)—50 mM in water. Store at 4° C. • DMSO (dimethyl sulfoxide, Component H)—1 mL (100%) Reagent Preparation: FluxOR Working Solutions • 1000× FluxOR™ Reagent: Reconstitute a vial of component A in 100 μl DMSO; Mix well; Store 10 μl aliquots at −20° C. • 1× FluxOR™ Assay Buffer: Dilute Component B 10-fold with water; Adjust pH to 7.4 with Hepes/NaOH; Filter and store at 4° C. • Probenecid/Assay Buffer: 100 mL of 1× FluxOR™ Assay Buffer; 1 mL of reconstituted component D; Store at 4° C. • Loading Buffer (per microplate): 10 μl 1000× FluxOR™ Reagent; 100 μl component C; 10 mL Probenecid/Assay Buffer • Compound Buffer (per microplate): 20 mL Probenecid/Assay Buffer; 0.3 mM ouabain (10 mM ouabain in water can be stored in amber bottle/aluminum foil at room temperature); Test compound • 1× FluxOR™ Chloride-Free Buffer: Prepare 1× working solution in water. Can be stored at room temperature • Stimulant Buffer (prepared at 5× final concentration in 1× FluxOR™ Chloride-Free Buffer): 7.5 mM Thallium sulfate and 0.75 mM Potassium sulfate (to give a final assay concentration of 3 mM Thallium 0.3 mM Potassium). Store at 4° C. when not in use. If kept sterile, this solution is good for months.
Assay Protocol—The ROMK channel functional thallium flux assay is performed in 384 wells, using the FLIPR-Tetra instrument. HEK-hKir1.1 cells are seeded in Poly-D-Lysine microplates and kept in a 37° C.-10% CO2 incubator overnight. On the day of the experiment, the growth media is replaced with the FluxOR™ reagent loading buffer and incubated, protected from light, at ambient temperature (23-25° C.) for 90 min. The loading buffer is replaced with assay buffer±test compound followed by 30 min incubation at ambient temperature, where the Thallium/Potassium stimulant is added to the microplate.
• 1. Seed HEK-hKir1.1 cells ([…] at 20,000 cells/well) in 384-well PDL coated Microplates • 2. Allow cells to adhere overnight in humidified 37° C./10% CO2 incubator • 3. Completely remove cell growth media from microplate and replace with 25 μl loading buffer • 4. Incubate Microplate at room temperature, protected form light, for 90 min • 5. Remove loading buffer and replace with 25 μl 1× Assay Buffer±test compound. • 6. Incubate microplate at room temperature, protected from light, for 30 min • 7. At FLIPR-Tetra 384: Add stimulant (Thallium/Potassium) solution to microplate and monitor fluorescence. Excitation=400 nm, Emission=460 & 580 nm. Collect data for 10 min.

Kir1.1 (ROMK1) = Kir1.1 (ROMK1) (Homo sapiens (Human), UniProt P48048); assay: Electrophysiology Assay (whole cell voltage clamp, IonWorks Quattro); format: cell-based; settings: Chinese hamster ovary cells stably expressing Kir1.1; block during voltage step to 0 mV
Experimental: Block of Kir1.1 (ROMK1) currents was examined by whole cell voltage clamp (Hamill et. al. Pfluegers Archives 391:85-100 (1981)) using the IonWorks Quattro automated electrophysiology platform (Molecular Devices, Sunnyvale, Calif.). Chinese hamster ovary cells stably expressing Kir1.1 channels were maintained in T-75 flasks in cell culture media in a humidified 10% CO2 incubator at 37° C. Prior to an experiment, Kir1.1 expression was induced by overnight incubation with 1 mM sodium butyrate. On the day of the experiment, cells were dissociated with 2.5 mL of Versene (Invitrogen 15040-066) for approximately 6 min at 37° C. and suspended in 10 mL of bath solution containing (in mM): 150 NaCl, 10 KCl, 2.7 CaCl2, 0.5 MgCl2, 5 HEPES, pH 7.4. After centrifugation, the cell pellet was resuspended in approximately 4.0 mL of bath solution and placed in the IonWorks instrument. The intracellular solution consisted of (in mM): 80 K gluconate, 40 KCl, 20 KF, 3.2 MgCl2, 3 EGTA, 5 Hepes, pH 7.4. Electrical access to the cytoplasm was achieved by perforation in 0.13 mg/mL amphotericin B for 4 min. Amphotericin B (Sigma A-4888) was prepared as a 40 mg/mL solution in DMSO. Voltage protocols and current recordings were performed using the IonWorks HT software/hardware system. Currents were sampled at 1 kHz. No correction for liquid junction potentials was used. The test pulse, consisting of a 100 ms step to 0 mV from a holding potential of −70 mV, followed by a 100 ms voltage ramp from −70 mV to +70 mV, was applied before and after a 6 min compound incubation period. Test compounds were prepared by diluting DMSO stock solutions into the bath solution at 3× the final concentration and placed in the instrument in 96-well polypropylene plates. Current amplitudes were measured using the IonWorks software. To assess compound potency, the fractional block during the voltage step to 0 mV was calculated in Microsoft Excel (Microsoft, Redmond, Calif.), and dose-response curves were fitted with Igor Pro 4.0 (WaveMetrics, Lake Oswego, Oreg.). Normally, a control compound is included to support that the assay is giving consistent results compared to previous measurements, although the control is not required to obtain the results for the test compounds.

Sequence of hROMK (hKir1.1) (P48048 whole entry): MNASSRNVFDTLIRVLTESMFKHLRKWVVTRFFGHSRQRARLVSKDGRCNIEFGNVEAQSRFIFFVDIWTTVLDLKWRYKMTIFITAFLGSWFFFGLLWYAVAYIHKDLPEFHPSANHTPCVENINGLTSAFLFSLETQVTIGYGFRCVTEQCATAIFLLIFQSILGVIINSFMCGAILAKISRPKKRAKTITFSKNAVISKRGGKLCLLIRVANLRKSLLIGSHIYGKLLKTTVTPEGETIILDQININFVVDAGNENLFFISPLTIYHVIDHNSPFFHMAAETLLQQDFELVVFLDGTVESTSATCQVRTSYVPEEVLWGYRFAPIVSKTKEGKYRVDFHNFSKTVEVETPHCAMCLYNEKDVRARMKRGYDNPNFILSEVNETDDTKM
Sequence of Kir1.1 (ROMK1) (P48048 whole entry, species assumed): as the sequence (P48048 whole entry) above

`O=C1C=C(N2CCC3(CCN(CC4OCCc5c4ccc4c5COC4=O)CC3)C2=O)CO1` (racemic) [Example 52] showed an IC50 (hROMK (hKir1.1)) of 350 nM and an IC50 (Kir1.1 (ROMK1)) of 60 nM.
Work on `CC1=C(N2C(=O)C3(CCN(C[C@H](O)c4ccc5c(c4C)COC5=O)CC3)CC2C)COC1=O` (single isomer, unassigned) [Example 30] yielded an IC50 (hROMK (hKir1.1)) of 20 nM and an IC50 (Kir1.1 (ROMK1)) of 20 nM.
Compound `CCC1CC2(CCN(C[C@H](O)c3ccc4c(c3C)COC4=O)CC2)C(=O)N1C1=CC(=O)OC1` (single isomer, unassigned) [Example 66] has an IC50 (hROMK (hKir1.1)) of 10 nM and an IC50 (Kir1.1 (ROMK1)) of 20 nM.
`Cc1c([C@@H](O)CN2CCC3(CC2)CC(C2CC2)N(C2=CC(=O)OC2)C3=O)ccc2c1COC2=O` (single isomer, unassigned) [Example 69] was tested, and the IC50 (hROMK (hKir1.1)) was 20 nM and the IC50 (Kir1.1 (ROMK1)) was 30 nM.
For `CCc1c(C(O)CN2CCC3(CC2)CCN(C2=C(C)C(=O)OC2)C3=O)ccc2c1COC2=O` (single isomer, unassigned) [Example 75], the IC50 (hROMK (hKir1.1)) was 30 nM and the IC50 (Kir1.1 (ROMK1)) was 10 nM.
Compound `CC1=C(N2CCC3(CCN(CC(O)c4ccc5c(c4C4CC4)COC5=O)CC3)C2=O)COC1=O` (single isomer, unassigned) [Example 76] has an IC50 (hROMK (hKir1.1)) of 10 nM and an IC50 (Kir1.1 (ROMK1)) of 10 nM.
Compound `CC1=C(N2CCC3(CCN(CC(O)c4ccc5c(c4Cl)COC5=O)CC3)C2=O)COC1=O` (single isomer, unassigned) [Example 79] has an IC50 (hROMK (hKir1.1)) of 10 nM and an IC50 (Kir1.1 (ROMK1)) of 3 nM.
For `CC1=C(N2CCC3(CCN(CC(O)c4ccc5c(c4F)COC5=O)CC3)C2=O)COC1=O` (single isomer, unassigned) [Example 80], the IC50 (hROMK (hKir1.1)) was 50 nM and the IC50 (Kir1.1 (ROMK1)) was 10 nM.
Compound `O=C1C=C(N2CCC3(CCN(CCc4ccc5c(c4)COC5=O)CC3)C2=O)CO1` [Example 3] has an IC50 (hROMK (hKir1.1)) of 290 nM and an IC50 (Kir1.1 (ROMK1)) of 70 nM.
With `Cc1c([C@@H](O)CN2CCC3(CC2)CCN(C2=CC(=O)OC2)C3=O)ccc2c1COC2=O` [Example 5, 8-[(2R)-2-hydroxy-2-(4-methyl-1-oxo-1,3-dihydro-2-benzofuran-5-yl)ethyl]-2-(5-oxo-2,5-dihydrofuran-3-yl)-2,8-diazaspiro[4.5]decan-1-one] the IC50 (hROMK (hKir1.1)) was 30 nM and the IC50 (Kir1.1 (ROMK1)) was 4 nM.
For `CC1=C(N2CCC3(CCN(C[C@H](O)c4ccc5c(c4C)COC5=O)CC3)C2=O)COC1=O` [Example 7, 8-[(2R)-2-hydroxy-2-(4-methyl-1-oxo-1,3-dihydro-2-benzofuran-5-yl)ethyl]-2-(4-methyl-5-oxo-2,5-dihydrofuran-3-yl)-2,8-diazaspiro[4.5]decan-1-one], the IC50 (hROMK (hKir1.1)) was 20 nM and the IC50 (Kir1.1 (ROMK1)) was 10 nM.
Work on `CC1=C(N2CCCC3(CCN(C[C@H](O)c4ccc5c(c4C)COC5=O)CC3)C2=O)COC1=O` [Example 9, 9-[(2R)-2-hydroxy-2-(4-methyl-1-oxo-1,3-dihydro-2-benzofuran-5-yl)ethyl]-2-(4-methyl-5-oxo-2,5-dihydrofuran-3-yl)-1-oxo-2-aza-9-azoniaspiro[5.5]undecane] yielded an IC50 (hROMK (hKir1.1)) of 10 nM and an IC50 (Kir1.1 (ROMK1)) of 10 nM.
In the case of `Cc1c([C@H](O)CN2CCC3(CC2)CCN(C2=CC(=O)OC2)C3=O)ccc2c1COC2=O` [Example 21], the IC50 (hROMK (hKir1.1)) is reported as 370 nM and the IC50 (Kir1.1 (ROMK1)) is reported as 390 nM.
`Cc1c([C@@H](O)CN2CCC3(CC2)CCN(C2=C(F)C(=O)OC2)C3=O)ccc2c1COC2=O` [Example 22] showed an IC50 (hROMK (hKir1.1)) of 30 nM and an IC50 (Kir1.1 (ROMK1)) of 4 nM.
In the case of `Cc1c([C@@H](O)CN2CCC3(CCCN(C4=CC(=O)OC4)C3=O)CC2)ccc2c1COC2=O` [Example 23], the IC50 (hROMK (hKir1.1)) is reported as 20 nM and the IC50 (Kir1.1 (ROMK1)) is reported as 10 nM.
Compound `Cc1c([C@@H](O)CN2CCC3(CCCN(C4=CC(=O)OC4)C3)CC2)ccc2c1COC2=O` [Example 24] has an IC50 (hROMK (hKir1.1)) of 240 nM and an IC50 (Kir1.1 (ROMK1)) of 620 nM.
For `Cc1c([C@@H](O)CN2CCC3(CC2)CCN(C2=C(Cl)C(=O)OC2)C3=O)ccc2c1COC2=O` [Example 25], the IC50 (hROMK (hKir1.1)) was 10 nM and the IC50 (Kir1.1 (ROMK1)) was 10 nM.
`CC1=C(N2CCC3(CCN(CC(NC4CCC4)c4ccc5c(c4C)COC5=O)CC3)C2=O)COC1=O` (centres unmarked) [Example 56] showed an IC50 (hROMK (hKir1.1)) of 370 nM.
`COCCNC(CN1CCC2(CC1)CCN(C1=C(C)C(=O)OC1)C2=O)c1ccc2c(c1C)COC2=O` (centres unmarked) [Example 58] showed an IC50 (hROMK (hKir1.1)) of 220 nM.
In the case of `CC1=C(N2CCC3(CCN(CC(NCCC#N)c4ccc5c(c4C)COC5=O)CC3)C2=O)COC1=O` (centres unmarked) [Example 59], the IC50 (hROMK (hKir1.1)) is reported as 210 nM.
In the case of `CNC(CN1CCC2(CC1)CCN(C1=C(C)C(=O)OC1)C2=O)c1ccc2c(c1C)COC2=O` (centres unmarked) [Example 60, 8-[2-(methylamino)-2-(4-methyl-1-oxo-1,3-dihydro-2-benzofuran-5-yl)ethyl]-2-(4-methyl-5-oxo-2,5-dihydrofuran-3-yl)-2,8-diazaspiro[4.5]decan-1-one], the IC50 (hROMK (hKir1.1)) is reported as 100 nM.
Work on `Cc1c([C@@H](O)CN2CCC3(CC2)C(=O)N(C2=CC(=O)OC2)c2ccccc23)ccc2c1COC2=O` [Example 65, 1′-[(2R)-2-hydroxy-2-(4-methyl-1-oxo-1,3-dihydro-2-benzofuran-5-yl)ethyl]-2-oxo-1-(5-oxo-2,5-dihydrofuran-3-yl)-1,2-dihydrospiro[indole-3,4′-piperidinium]] yielded an IC50 (hROMK (hKir1.1)) of 40 nM.
Work on `CC1=C(N2C(=O)C3(CCN(C[C@H](O)c4ccc5c(c4C)COC5=O)CC3)CC2C2CC2)COC1=O` (some centres unmarked) [Example 70] yielded an IC50 (hROMK (hKir1.1)) of 340 nM.
With `COCC1=C(N2CCC3(CCN(C[C@H](O)c4ccc5c(c4C)COC5=O)CC3)C2=O)COC1=O` [Example 71] the IC50 (hROMK (hKir1.1)) was 70 nM.
In the case of `CC1=CC2(CCN(C[C@H](O)c3ccc4c(c3C)COC4=O)CC2)C(=O)N1C1=CC(=O)OC1` [Example 72], the IC50 (hROMK (hKir1.1)) is reported as 30 nM.
`CC1=CN(C2=C(C)C(=O)OC2)C(=O)C12CCN(C[C@H](O)c1ccc3c(c1C)COC3=O)CC2` [Example 73] showed an IC50 (hROMK (hKir1.1)) of 80 nM.
`CC1=C(N2CCC3(CC4COCC(C3)N4C[C@H](O)c3ccc4c(c3C)COC4=O)C2=O)COC1=O` (some centres unmarked) [Example 82] showed an IC50 (hROMK (hKir1.1)) of 180 nM.
